{"source": "EPA's ToxRefDB 2", "key": {"rabbit [1]": {"test_system": "rabbit", "settings": "Prenatal developmental toxicity study, new zealand white, Oral, Gavage/Intubation, dose end: 18 GD"}, "rat [2]": {"test_system": "rat", "settings": "Multigenerational reproductive toxicity study, sprague dawley, Oral, Feed, dose end: 2 generation"}, "rat [3]": {"test_system": "rat", "settings": "Prenatal developmental toxicity study, sprague dawley, Oral, Gavage/Intubation, dose end: 15 GD"}, "dog [4]": {"test_system": "dog", "settings": "Subchronic oral toxicity in nonrodent, beagle, Capsule, dose end: 91 day, group: systemic"}, "dog [5]": {"test_system": "dog", "settings": "Chronic toxicity; beagle; Oral; Capsule; dose end: 26 week; group: systemic; systemic / in life observation / clinical signs / defecation (diarrhea) + systemic / in life observation / clinical signs / mucoid stools + …"}, "rat [6]": {"test_system": "rat", "settings": "Chronic toxicity; other; Oral; Feed; dose end: 24 month; group: systemic; systemic / organ weight / testes / nos + systemic / pathology gross / testes / reduced size + systemic / pathology microscopic / testes / …"}, "rat [7]": {"test_system": "rat", "settings": "Subchronic oral toxicity in rodents, sprague dawley, Feed, dose end: 91 day, group: systemic"}, "mouse [8]": {"test_system": "mouse", "settings": "Combined chronic toxicity/carcinogenicity; cd1; Oral; [Not Specified]; dose end: 18 month; group: systemic; systemic / pathology microscopic / lung / adenoma + systemic / pathology microscopic / lung / carcinoma"}, "mouse [9]": {"test_system": "mouse", "settings": "Carcinogenicity, cd1, Oral, Feed, dose end: 80 week, group: systemic"}, "rabbit [10]": {"test_system": "rabbit", "settings": "Prenatal developmental toxicity study, other, Oral, Gavage/Intubation, dose end: 19 GD"}, "dog [11]": {"test_system": "dog", "settings": "Chronic toxicity, beagle, Oral, Capsule, dose end: 52 week, group: systemic"}, "[12]": {"settings": "group: developmental, systemic / in life observation / body weight / fetal weight"}, "[13]": {"settings": "group: maternal, systemic / in life observation / clinical signs / anogenital staining + systemic / in life observation / clinical signs / defecation + …"}, "[14]": {"settings": "group: parental, systemic / pathology gross / testes / degeneration + systemic / pathology microscopic / testes / aspermia + systemic / pathology microscopic…"}, "[15]": {"settings": "group: reproductive, reproductive / reproductive performance / fertility / fertility + reproductive / reproductive performance / mating / mating"}, "[16]": {"settings": "group: developmental, developmental / developmental malformation / bone / incomplete ossification + developmental / developmental malformation / general / [other…"}, "[17]": {"settings": "group: maternal, systemic / in life observation / body weight / body weight + systemic / in life observation / clinical signs / fat, discoloration + systemic…"}, "[18]": {"settings": "systemic / clinical chemistry / alanine aminotransferase (alt/sgpt) / alanine aminotransferase (alt/sgpt) + systemic / in life observation…"}, "[19]": {"settings": "systemic / in life observation / body weight / body weight"}, "[20]": {"settings": "systemic / organ weight / testes / nos + systemic / in life observation / body weight / body weight + systemic / in life observation / food …"}, "[21]": {"settings": "systemic / in life observation / body weight / body weight gain"}, "[22]": {"settings": "systemic / in life observation / body weight / body weight gain + systemic / in life observation / body weight / body weight + systemic / …"}, "[23]": {"settings": "group: developmental, developmental / developmental malformation / bone / [other]"}, "[24]": {"settings": "group: maternal, reproductive / reproductive performance / resorptions / resorptions + systemic / in life observation / clinical signs / defecation (diarrhea…"}, "[25]": {"settings": "systemic / in life observation / body weight / body weight gain + systemic / in life observation / body weight / body weight + systemic / in…"}}}
{"smiles": "CC1(C)CN=C(NN=C(C=Cc2ccc(C(F)(F)F)cc2)C=Cc2ccc(C(F)(F)F)cc2)NC1", "note": "[Hydramethylnon]", "values": [{"measurement": "LEL", "setting": "rabbit [1]; [12]", "result": 10, "unit": "mg/kg/day"}, {"measurement": "LOAEL", "setting": "rabbit [1]; [12]", "result": 10, "unit": "mg/kg/day"}, {"measurement": "NEL", "setting": "rabbit [1]; [12]", "result": 5, "unit": "mg/kg/day"}, {"measurement": "NOAEL", "setting": "rabbit [1]; [12]", "result": 5, "unit": "mg/kg/day"}, {"measurement": "LEL", "setting": "rabbit [1]; [13]", "result": 10, "unit": "mg/kg/day"}, {"measurement": "LOAEL", "setting": "rabbit [1]; [13]", "result": 10, "unit": "mg/kg/day"}, {"measurement": "NEL", "setting": "rabbit [1]; [13]", "result": 5, "unit": "mg/kg/day"}, {"measurement": "NOAEL", "setting": "rabbit [1]; [13]", "result": 5, "unit": "mg/kg/day"}, {"measurement": "LEL", "setting": "rat [2]; [14]", "result": 3.32, "unit": "mg/kg/day"}, {"measurement": "LOAEL", "setting": "rat [2]; [14]", "result": 3.32, "unit": "mg/kg/day"}, {"measurement": "NEL", "setting": "rat [2]; [14]", "result": 1.66, "unit": "mg/kg/day"}, {"measurement": "NOAEL", "setting": "rat [2]; [14]", "result": 1.66, "unit": "mg/kg/day"}, {"measurement": "LEL", "setting": "rat [2]; [15]", "result": 5.07, "unit": "mg/kg/day"}, {"measurement": "LOAEL", "setting": "rat [2]; [15]", "result": "> 5.07", "unit": "mg/kg/day"}, {"measurement": "NEL", "setting": "rat [2]; [15]", "result": 3.32, "unit": "mg/kg/day"}, {"measurement": "NOAEL", "setting": "rat [2]; [15]", "result": "≥ 5.07", "unit": "mg/kg/day"}, {"measurement": "LEL", "setting": "rat [3]; [16]", "result": 30, "unit": "mg/kg/day"}, {"measurement": "LOAEL", "setting": "rat [3]; [16]", "result": 30, "unit": "mg/kg/day"}, {"measurement": "NEL", "setting": "rat [3]; [16]", "result": 10, "unit": "mg/kg/day"}, {"measurement": "NOAEL", "setting": "rat [3]; [16]", "result": 10, "unit": "mg/kg/day"}, {"measurement": "LEL", "setting": "rat [3]; group: maternal, systemic / in life observation / body weight / body weight + systemic / in life observation / clinical signs / fat, discoloration", "result": 10, "unit": "mg/kg/day"}, {"measurement": "LOAEL", "setting": "rat [3]; [17]", "result": 30, "unit": "mg/kg/day"}, {"measurement": "NEL", "setting": "rat [3]; [17]", "result": 3, "unit": "mg/kg/day"}, {"measurement": "NOAEL", "setting": "rat [3]; [17]", "result": 10, "unit": "mg/kg/day"}, {"measurement": "LOAEL", "setting": "dog [4]; [18]", "result": 6, "unit": "mg/kg/day"}, {"measurement": "NOAEL", "setting": "dog [4]; [18]", "result": 3, "unit": "mg/kg/day"}, {"measurement": "LEL", "setting": "dog [4]; [19]", "result": 3, "unit": "mg/kg/day"}, {"measurement": "NEL", "setting": "dog [4]; [19]", "result": "< 3", "unit": "mg/kg/day"}, {"measurement": "LEL", "setting": "dog [5]", "result": 3, "unit": "mg/kg/day"}, {"measurement": "LOAEL", "setting": "dog [5]", "result": 3, "unit": "mg/kg/day"}, {"measurement": "NEL", "setting": "dog [5]", "result": 1, "unit": "mg/kg/day"}, {"measurement": "NOAEL", "setting": "dog [5]", "result": 1, "unit": "mg/kg/day"}, {"measurement": "LEL", "setting": "rat [6]", "result": 4.9, "unit": "mg/kg/day"}, {"measurement": "LOAEL", "setting": "rat [6]", "result": 4.9, "unit": "mg/kg/day"}, {"measurement": "NEL", "setting": "rat [6]", "result": 2.4, "unit": "mg/kg/day"}, {"measurement": "NOAEL", "setting": "rat [6]", "result": 2.4, "unit": "mg/kg/day"}, {"measurement": "LEL", "setting": "rat [7]; systemic / organ weight / testes / nos", "result": 2.5, "unit": "mg/kg/day"}, {"measurement": "NEL", "setting": "rat [7]; [20]", "result": 1.25, "unit": "mg/kg/day"}, {"measurement": "NOAEL", "setting": "rat [7]; [20]", "result": 2.5, "unit": "mg/kg/day"}, {"measurement": "LOAEL", "setting": "rat [7]; systemic / organ weight / testes / nos + systemic / pathology microscopic / testes / atrophy", "result": 5, "unit": "mg/kg/day"}, {"measurement": "LEL", "setting": "mouse [8]", "result": 4.45, "unit": "mg/kg/day"}, {"measurement": "LOAEL", "setting": "mouse [8]", "result": 4.45, "unit": "mg/kg/day"}, {"measurement": "NEL", "setting": "mouse [8]", "result": "< 4.45", "unit": "mg/kg/day"}, {"measurement": "NOAEL", "setting": "mouse [8]", "result": "< 4.45", "unit": "mg/kg/day"}]}
{"smiles": "COS(=O)(=O)[O-].Cn1c(-c2ccccc2)cc(-c2ccccc2)[n+]1C", "note": "[Difenzoquat metilsulfate]", "values": [{"measurement": "LEL", "setting": "mouse [9]; [21]", "result": 69.4, "unit": "mg/kg/day"}, {"measurement": "LOAEL", "setting": "mouse [9]; [21]", "result": 69.4, "unit": "mg/kg/day"}, {"measurement": "NEL", "setting": "mouse [9]; [22]", "result": 26.9, "unit": "mg/kg/day"}, {"measurement": "NOAEL", "setting": "mouse [9]; [22]", "result": 26.9, "unit": "mg/kg/day"}, {"measurement": "LEL", "setting": "rabbit [10]; [23]", "result": 250, "unit": "mg/kg/day"}, {"measurement": "LOAEL", "setting": "rabbit [10]; [23]", "result": 250, "unit": "mg/kg/day"}, {"measurement": "NEL", "setting": "rabbit [10]; [23]", "result": 100, "unit": "mg/kg/day"}, {"measurement": "NOAEL", "setting": "rabbit [10]; [23]", "result": 100, "unit": "mg/kg/day"}, {"measurement": "LEL", "setting": "rabbit [10]; [24]", "result": 250, "unit": "mg/kg/day"}, {"measurement": "LOAEL", "setting": "rabbit [10]; [24]", "result": 250, "unit": "mg/kg/day"}, {"measurement": "NEL", "setting": "rabbit [10]; [24]", "result": 100, "unit": "mg/kg/day"}, {"measurement": "NOAEL", "setting": "rabbit [10]; [24]", "result": 100, "unit": "mg/kg/day"}, {"measurement": "LOAEL", "setting": "dog [11]; [21]", "result": 30, "unit": "mg/kg/day"}, {"measurement": "LEL", "setting": "dog [11]; [25]", "result": 30, "unit": "mg/kg/day"}, {"measurement": "NEL", "setting": "dog [11]; [25]", "result": 20, "unit": "mg/kg/day"}, {"measurement": "NOAEL", "setting": "dog [11]; [25]", "result": 20, "unit": "mg/kg/day"}]}
